Assay results taken from patent publication US20220265614A1, “TREATMENT COMPRISING FXR AGONISTS” (Novartis AG, priority 2019, published 2022).

Experiments:
[1] = test system: patients with biopsy-proven NASH and fibrosis stages 2-3; assay: FLIGHT-FXR (NCT02855164) Part C interim analysis at week 12; format: in vivo, human
Excerpt: Prespecified endpoints assessed at week 12 included overall safety and changes in alanine aminotransferase (ALT), hepatic fat fraction (HFF), gamma glutamyl transferase (GGT), and body weight.

NASH patients [2] = assay: Parts A and B of study CLJN452A2202 in NASH patients, 12 weeks
human hepatocytes = assay: In vitro human hepatocytes treated with FXR agonists: LDL uptake; format: cell-based; details: FIG. 5
Excerpt: In addition, FXR agonist treatments have been associated with lipid abnormalities, including increases in peripheral LDL (Neuschwander-Tetri et al, The Lancet 2015; 385: 956-965). The reduction of the bile acid pathway by FXR agonists could lead to intracytoplasmic increase in cholesterol in the hepatocytes. Increase cholesterol in hepatocytes is associated with a counter mechanism of decrease LDL receptor on the surface of the cells (Goldstein et al Circulation. 1987 September;76(3):504-7). Such a decrease in the LDL receptor on the surface of the hepatocytes will ultimately result in an increase in circulating LDL; the phenotype observed in the clinics. […] To mitigate the increase in circulating LDL, it is proposed to administer a FXR agonist to the subjects in need thereof in the evening (e.g. from about 6 pm to about 12 pm, preferably from about 8 pm to about 11 pm, preferably around 9 pm) to reduce the impact of the FXR agonist on circulating LDL.
To mitigate the increase in peripheric LDL, we hypothesize that treating the subjects in the evening (from about 6 pm to about 12 pm, e.g. from about 8 pm to about 11 pm, preferably around 9 pm) would be reduce the impact of the drug on LDL. […]

NASH patients [3] = details: cited from earlier work
[4] = higher doses (140 μg, 200 μg), after 12 weeks of treatment
[5] = all doses (10, 30, 60 and 90 μg), 12 weeks

## O=C(O)c1cc(F)c2nc(N3C4CCC3CC(OCc3c(-c5ccccc5OC(F)(F)F)noc3C3CC3)C4)sc2c1 [Tropifexor, 2-[(1R,3r,5S)-3-({5-cyclopropyl-3-[2-(trifluoromethoxy)phenyl]-1,2-oxazol-4-yl}methoxy)-8-azabicyclo[3.2.1]octan-8-yl]-4-fluoro-1,3-benzothiazole-6-carboxylic acid]
[1]; 140 μg and 200 μg, 12 weeks
  lipid changes that led to treatment discontinuation or dose reduction: None
  low density lipoprotein-cholesterol (LDL-C): dose-related increase
[1]; 140 μg once daily, N = 50
  LS mean absolute change (SE) in ALT from baseline to Week 12: −20.1 (4.57) U/L
  LS mean absolute change (SE) in GGT from baseline to Week 12: −39.2 (3.70) U/L
  LS mean absolute change (SE) in body weight from baseline to Week 12: −2.46 (0.38) kg
[1]; 140 μg, 200 μg and placebo groups
  frequency of serious adverse events: low and comparable across groups
[1]; 140 μg, n=1
  treatment discontinuation rate due to pruritus: 2%
[1]; 200 μg
  prespecified endpoints at week 12: met
[1]; 200 μg once daily, N = 51
  LS mean absolute change (SE) in ALT from baseline to Week 12: −23.6 (4.48) U/L
  LS mean absolute change (SE) in GGT from baseline to Week 12: −40.9 (3.62) U/L
  LS mean absolute change (SE) in body weight from baseline to Week 12: −3.20 (0.37) kg
[1]; 200 μg, n=3
  treatment discontinuation rate due to pruritus: 6%
[1]; both Tropifexor groups (140 μg, 200 μg)
  patients with pruritus whose events were of mild (Grade 1) severity: > 60%
[1]; [4]
  ALT, HFF, and body weight: robust and dose-dependent decreases
  safety and tolerability: good safety and tolerability
NASH patients [2]; 10 to 90 μg daily for 12 weeks
  biologic activity (GGT): clear dose response
  target engagement (FGF19): clear dose response
NASH patients [2]; 60 and 90 μg, Week 12
  efficacy based on biomarkers: anti-inflammatory and anti-steatotic efficacy
NASH patients [2]; [5]
  ALT compared to placebo: reduced
  hepatic fat fraction compared to placebo: reduced
NASH patients [2]; up to 90 μg daily
  tolerability: generally well tolerated

## O=C(O)c1ccnc(N2CC(O)(c3ccc(OCc4c(-c5c(Cl)cccc5Cl)noc4C4CC4)cc3Cl)C2)c1 [cilofexor]
Human hepatocytes
  LDL uptake by hepatocytes: reduce the LDL uptake by hepatocytes in a dose dependent manner

## CC[C@H]1[C@@H](O)[C@@H]2[C@H](CC[C@]3(C)[C@@H]([C@H](C)CCC(=O)O)CC[C@@H]23)[C@@]2(C)CC[C@@H](O)C[C@@H]12 [obeticholic acid, 6α-ethyl-chenodeoxycholic acid]
Human hepatocytes
  LDL uptake by hepatocytes: reduce the LDL uptake by hepatocytes in a dose dependent manner
NASH patients [3]
  adverse effects of long term administration: pruritus: most common adverse effect
NASH patients [3]; long term administration
  lipid abnormalities: low density lipoprotein (LDL) cholesterol: increased
